According to ChEMBL document CHEMBL1130281, “Structure-based design of a new bisintercalating anthracycline antibiotic” (1997):

Legend:
MCF7-VP = assay: In vitro cytotoxicity against multi drug resistant human breast carcinoma (MCF-7/VP-16) cell line; format: functional; conditions: read-out: ID50 (the source's name)
[1] = RI is the ratio of cytotoxicity against MCF-7/VP-16 cell line to that of MCF-7 cell line; format: functional, MCF7
MCF7 = assay: In vitro cytotoxicity against human breast carcinoma cell line (MCF-7); format: functional; conditions: read-out: ID50 (the source's name)

Row | Structure (SMILES) | IC50 (MCF7-VP) [µM] | RI [1] | IC50 (MCF7) [µM]
1 | COc1cccc2c1C(=O)c1c(O)c3c(c(O)c1C2=O)C[C@@](O)(C(C)=O)C[C@@H]3OC1CC(NCc2ccc(CNC3CC(O[C@H]4C[C@](O)(C(C)=O)Cc5c(O)c6c(c(O)c54)C(=O)c4c(OC)cccc4C6=O)OC(C)C3O)cc2)C(O)C(C)O1.Cl.Cl (some centres undefined) [BISANTHRACYCLINE (WP631)] | 2.5 | 0.5 | 4.8
2 | COc1cccc2c1C(=O)c1c(O)c3c(c(O)c1C2=O)C[C@@](O)(C(=O)CO)C[C@@H]3O[C@H]1C[C@H](N)[C@H](O)[C@H](C)O1 [DOXORUBICIN] | 14.2 | – | –
